Where two headings read alike, the source gives them in different places.
Target: T1, G protein-coupled receptor 119 (GPR-119) (Mesocricetus auratus, UniProt A0A1U8CD06)
T1 construct: hamster-derived β-cells containing G protein-coupled receptor 119 (GPR-119), HIT-T15 cells; host or cells: HIT-T15 (hamster pancreatic β-cells)
T1 sequence (A0A1U8CD06 1-334): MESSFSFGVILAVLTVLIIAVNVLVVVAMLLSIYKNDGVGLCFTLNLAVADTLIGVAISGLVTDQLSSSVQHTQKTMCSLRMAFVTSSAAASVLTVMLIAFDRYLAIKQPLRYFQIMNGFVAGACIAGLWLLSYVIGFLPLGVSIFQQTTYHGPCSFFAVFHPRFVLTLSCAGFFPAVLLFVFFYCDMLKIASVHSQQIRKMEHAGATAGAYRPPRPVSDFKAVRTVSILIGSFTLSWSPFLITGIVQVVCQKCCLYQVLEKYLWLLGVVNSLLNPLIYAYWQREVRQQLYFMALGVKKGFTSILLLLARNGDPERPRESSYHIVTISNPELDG
Assay: Evaluation of cAMP activity in HIT-T15 cells (HTRF cAMP dynamic kit)
Assay type: cell-based, hamster
Details: cAMP activation
Outline: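 HIT-T15 cells, 60,000/well, treated next day with compound at six concentrations ([…]) for 1 h at 37° C. Lysate cAMP quantified by HTRF competitive immunoassay (D2-cAMP, cryptate anti-cAMP); activity taken as change in FRET signal relative to DMSO.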

[1] = 1 h at 37° C., six concentrations, read-out: EC50

EC50 [1] [nM] | EC50 (read-out: EC50 value) [nM] | SMILES
45 | ≤ 50 | CC(C)(C)OC(=O)N1CCC(COc2ccc(C3=CCC(C(=O)N4CCOCC4)CC3)cn2)CC1 (stereo not shown) [Example 70, tert-butyl 4-((5-(4-(morpholine-4-carbonyl)cyclohex-1-enyl)pyridin-2-yloxy)methyl)piperidine-1-carboxylate]
5.4 | ≤ 50 | CC(C)(C)OC(=O)N1CCC(COc2ccc(C3=CCC(C(=O)N4CCSCC4)CC3)cc2F)CC1 (stereo not shown) [Example 71, tert-butyl 4-((2-fluoro-4-(4-(thiomorpholine-4-carbonyl)cyclohex-1-enyl)phenoxy)methyl)piperidine-1-carboxylate]
25 | ≤ 50 | CC(C)(C)OC(=O)N1CCC(COc2ccc(C3=CCC(C(=O)N4CCSCC4)CC3)cn2)CC1 (stereo not shown) [Example 72, tert-butyl 4-((5-(4-(thiomorpholine-4-carbonyl)cyclohex-1-enyl)pyridin-2-yloxy)methyl)piperidine-1-carboxylate]
11 | ≤ 50 | CC(C)(C)OC(=O)N1CCC(COc2ccc(C3=CCC(C(=O)N4CCS(=O)(=O)CC4)CC3)cc2F)CC1 (stereo not shown) [Example 73, tert-butyl 4-((2-fluoro-4-(4-(thiomorpholine-1,1-dioxide-4-carbonyl)cyclohex-1-enyl)phenoxy)methyl)piperidine-1-carboxylate]
6.2 | ≤ 50 | CC(C)c1noc(N2CCC(COc3ccc(C4=CCC(C(=O)N5CCSCC5)CC4)cc3)CC2)n1 (stereo not shown) [Example 74, (4-(4-((1-(3-isopropyl-1,2,4-oxadiazol-5-yl)piperidin-4-yl)methoxy)phenyl)cyclohex-3-enyl)(thiomorpholino)methanone]
210 |  | CC(C)c1noc(N2CCC(COc3ccc(C4=CCC(C(=O)NCCF)CC4)cc3)CC2)n1 (stereo not shown) [Example 75, N-(2-fluoroethyl)-4-(4-((1-(3-isopropyl-1,2,4-oxadiazol-5-yl)piperidin-4-yl)methoxy)phenyl)cyclohex-3-enecarboxamide]
12 | ≤ 50 | CC(C)c1noc(N2CCC(COc3ccc(C4=CCC(C(=O)N(C)CCCNC(=O)OC(C)(C)C)CC4)cc3)CC2)n1 (stereo not shown) [Example 76, tert-butyl 3-(4-(4-((1-(3-isopropyl-1,2,4-oxadiazol-5-yl)piperidin-4-yl)methoxy)phenyl)-N-methylcyclohex-3-enecarboxamido)propylcarbamate]
12 | ≤ 50 | CC(C)c1noc(N2CCC(COc3ccc(C4=CCC(C(=O)N(C)CCCN)CC4)cc3)CC2)n1 (stereo not shown) [Example 77, N-(3-aminopropyl)-4-(4-((1-(3-isopropyl-1,2,4-oxadiazol-5-yl)piperidin-4-yl)methoxy)phenyl)-N-methylcyclohex-3-enecarboxamide]
100 |  | CC(C)c1noc(N2CCC(COc3ccc(C4=CCC(C(=O)NCC(F)(F)F)CC4)cc3)CC2)n1 (stereo not shown) [Example 78, 4-(4-((1-(3-isopropyl-1,2,4-oxadiazol-5-yl)piperidin-4-yl)methoxy)phenyl)-N-(2,2,2-trifluoroethyl)cyclohex-3-enecarboxamide]
49 | ≤ 50 | CCN1CCN(C(=O)C2CC=C(c3ccc(OCC4CCN(c5nc(C(C)C)no5)CC4)cc3)CC2)CC1 (stereo not shown) [Example 79, (4-ethylpiperazin-1-yl)(4-(4-((1-(3-isopropyl-1,2,4-oxadiazol-5-yl)piperidin-4-yl)methoxy)phenyl)cyclohex-3-enyl)methanone]
9 | ≤ 50 | CC(C)c1noc(N2CCC(COc3ccc(C4=CCC(C(=O)N(C)CCO)CC4)cc3F)CC2)n1 (stereo not shown) [Example 81, 4-(3-fluoro-4-((1-(3-isopropyl-1,2,4-oxadiazol-5-yl)piperidin-4-yl)methoxy)phenyl)-N-(2-hydroxyethyl)-N-methylcyclohex-3-enecarboxamide]
9 | ≤ 50 | CC(C)(CO)CNC(=O)C1CC=C(c2ccc(OCC3CCN(C(=O)OC(C)(C)C)CC3)c(F)c2)CC1 (stereo not shown) [Example 82, tert-butyl 4-((2-fluoro-4-(4-(3-hydroxy-2,2-dimethylpropylcarbamoyl)cyclohex-1-enyl)phenoxy)methyl)piperidine-1-carboxylate]

Reference: patent US9758527B2, “Cyclohexene derivative, preparation method therefor, and pharmaceutical composition for preventing or treating metabolic diseases, containing same as active ingredient” (HYUNDAI PHARM CO., LTD., priority 2014, dated 2017)
